# Test results as given in ChEMBL document CHEMBL5390322, “Discovery of 5-Azaquinoxaline Derivatives as Potent and Orally Bioavailable Allosteric SHP2 Inhibitors” (ACS Med Chem Lett, 2023).
# Experiments:
# [1] = biological target: T1, Mitogen-activated protein kinase; ERK1/ERK2 (Homo sapiens, UniProt P27361+P28482); assay: Inhibition of ERK1/2 phosphorylation at Thr202/Tyr204 residues in human KYSE520 cells incubated for 1 hrs by Western blot analysis; assay type: cell-based
# [2] = Metabolic stability in mouse liver microsome assessed as intrinsic clearance at […] preincubated for 5 mins followed by NADPH addition and measured after 20 mins by LC-MS analysis; assay type: ADME; settings: liver microsomes, dose 2.5 µM, time 25 min, read-out: CLH
# [3] = Metabolic stability in human liver microsome assessed as intrinsic clearance at […] preincubated for 5 mins followed by NADPH addition and measured after 20 mins by LC-MS analysis; assay type: ADME; settings: liver microsomes, dose 2.5 µM, time 25 min, read-out: CLH
# [4] = Metabolic stability in mouse hepatocyte assessed as intrinsic clearance incubated for 1 to 2 hrs by LC-MS analysis; assay type: ADME, cell-based; settings: hepatocytes, time 1-2 hrs, read-out: CLH
# [5] = Metabolic stability in human hepatocyte assessed as intrinsic clearance incubated for 1 to 2 hrs by LC-MS analysis; assay type: ADME, cell-based; settings: hepatocytes, time 1-2 hrs, read-out: CLH
# [6] = Permeability of compound from apical to basolateral side in LLC-PK1 cells incubated for 2 hrs by LC-MS/MS analysis; assay type: ADME, cell-based, Sus scrofa; settings: pig, read-out: permeability
# [7] = Solubility of the compound in FaSSIF at 1 mg/ml incubated for 24 hrs by LC-MS/MS analysis; assay type: physicochemical
# [8] = Clearance in CD-1 mouse at 1 mg/kg, iv measured upto 8 hrs by LC-MS/MS method; assay type: ADME, organism-based; settings: in vivo
# [9] = Half life in CD-1 mouse at 1 mg/kg, iv measured upto 8 hrs by LC-MS/MS method; assay type: ADME, organism-based; settings: in vivo
# [10] = Volume of distribution at steady state in CD-1 mouse at 1 mg/kg, iv measured upto 8 hrs by LC-MS/MS method; assay type: ADME, organism-based; settings: in vivo, read-out: Vdss
# [11] = Cmax in CD-1 mouse at 10 mg/kg, po measured upto 24 hrs by LC-MS/MS method; assay type: ADME, organism-based; design: dose 10 mg/kg, time < 24 hrs, route po; settings: in vivo
# [12] = Tmax in CD-1 mouse at 10 mg/kg, po measured upto 24 hrs by LC-MS/MS method; assay type: ADME, organism-based; settings: in vivo
# [13] = Oral bioavailability in CD-1 mouse at 10 mg/kg measured upto 24 hrs by LC-MS/MS method; assay type: ADME, organism-based; settings: in vivo
# [14] = AUC(0 to infinity) in CD-1 mouse at 10 mg/kg, po measured upto 24 hrs by LC-MS/MS method; assay type: ADME, organism-based; design: time < 24 hrs, dose 10 mg/kg, route po; settings: in vivo
# [15] = Toxicity in athymic nude Foxn1nu mouse xenografted with human MIA PaCa-2 cells harboring KRAS G12C mutant assessed as body weight loss at 30 to 100 mg/kg,po administrated for 28 days and measured every 3 to 4 days relative to control; assay type: organism-based; settings: in vivo, 672 h, dose 30-100 mg/kg, time 28 day
# MIA PaCa-2 [16] = assay: Antitumor activity against human MIA PaCa-2 cells harboring KRAS G12C mutant xenografted in athymic nude Foxn1nu mouse assessed as tumor growth inhibition at 30 mg/kg,po administrated for 28 days and measured every 3 to 4 days relative to control; assay type: functional; settings: time 28 day
# MIA PaCa-2 [17] = assay: Antitumor activity against human MIA PaCa-2 cells harboring KRAS G12C mutant xenografted in athymic nude Foxn1nu mouse assessed as tumor growth inhibition at 100 mg/kg,po administrated for 28 days and measured every 3 to 4 days relative to control; assay type: functional; settings: time 28 day
# [18] = biological target: T1, Mitogen-activated protein kinase; ERK1/ERK2; settings: KYSE520, time 1.0 hrs
# [19] = biological target: T1, Mitogen-activated protein kinase; ERK1/ERK2; settings: KYSE520, time 1.0 hrs; remark: listed apart in the source
# T1 sequence (P27361 whole entry, looked up): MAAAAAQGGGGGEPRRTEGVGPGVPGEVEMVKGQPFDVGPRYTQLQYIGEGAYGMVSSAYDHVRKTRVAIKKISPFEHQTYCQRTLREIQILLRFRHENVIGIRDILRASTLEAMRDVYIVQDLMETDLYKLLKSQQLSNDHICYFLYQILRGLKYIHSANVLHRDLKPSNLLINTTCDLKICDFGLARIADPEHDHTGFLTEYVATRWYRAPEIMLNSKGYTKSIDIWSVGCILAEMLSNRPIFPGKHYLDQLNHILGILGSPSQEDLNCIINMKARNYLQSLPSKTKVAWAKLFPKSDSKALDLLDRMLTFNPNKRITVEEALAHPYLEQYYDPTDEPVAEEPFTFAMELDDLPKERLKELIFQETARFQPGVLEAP
# T1 sequence (P28482 whole entry, looked up): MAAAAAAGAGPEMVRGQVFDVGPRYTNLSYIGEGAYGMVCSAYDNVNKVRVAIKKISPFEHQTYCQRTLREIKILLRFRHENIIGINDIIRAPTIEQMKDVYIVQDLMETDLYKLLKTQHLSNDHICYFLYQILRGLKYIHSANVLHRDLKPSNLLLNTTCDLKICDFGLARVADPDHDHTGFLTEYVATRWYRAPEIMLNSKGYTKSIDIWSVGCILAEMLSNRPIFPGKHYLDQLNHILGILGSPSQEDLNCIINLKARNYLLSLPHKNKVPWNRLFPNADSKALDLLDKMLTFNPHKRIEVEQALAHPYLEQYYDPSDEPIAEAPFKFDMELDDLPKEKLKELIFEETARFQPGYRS
compound,measurement,setting,value
Nc1nccc(Sc2ccc3nc(N4CCC5(CC4)Cc4ncccc4[C@H]5N)cnc3n2)c1Cl,IC50,[1],5 nM
same,CLint scaled at […],[2],35 mL/min/kg
same,CLint scaled at […],[3],9 mL/min/kg
same,CLint scaled,[4],28 mL/min/kg
same,CLint scaled at 10000 µM,[5],11 mL/min/kg
same,Papp A→B at 2 h,[6],11 ×10⁻⁶ cm/s
same,solubility at 24 h,[7],271 µg/mL
same,clearance,[8],19.2 mL/min/kg
same,half-life,[9],1.44 h
same,Vd,[10],1.74 L/kg
same,Cmax,[11],649 ng/mL
same,Tmax,[12],4 h
same,bioavailability,[13],66.5%
same,AUC(0-inf),[14],5780 ng·h/mL
same,Activity,[15],< 5%
same,TGI,MIA PaCa-2 [16],38%
same,TGI,MIA PaCa-2 [17],75%
same,fIC50,[18],0.06 µg/mL
same,fIC90,[18],0.535 µg/mL
same,fIC50,[19],0.06 µg/mL
same,fIC90,[19],0.535 µg/mL
